Measured values reported in PMC12137728, “The hydroxamate based HDAC inhibitor WMJ-J-09 induces colorectal cancer cell death by targeting tubulin and downregulating survivin” (Scientific Reports, 2025).

System: tubulin in HCT116 cells
Experiment: Microtubule assembly / polymerized tubulin (immunofluorescence, western blot)
Format: cell-based, human
Details: HCT116 cell lysate
Description: Following the indicated treatments, a lysis buffer containing NP-40 (0.5%), Tris (10 mM) (pH 7.0), PMSF (2 mM), NaCl (140 mM), leupeptin (0.2 mM), and pepstatin A (0.05 mM) was utilized to lyse cells to extract proteins. SDS-PAGE was utilized to separate protein samples in equal quantities, then transferred to a nitrocellulose membrane (Pall Corporation, Washington, NY, U.S.A.). Following transfer and 1-h blocking by incubation with TBST buffer containing 5% non-fat, the proteins immobilized on the membranes undergo primary antibody hybridization. Secondary antibodies conjugated with horseradish peroxidase were used to detect target proteins. Immunoreactivity was detected using the Western chemiluminescent HRP substrate kit, as per the manufacturer’s recommendations. We used a densitometer integrated into a scientific imaging system (Biospectrum AC System, UVP) to obtain quantitative data. We examined tubulin assembly as previously described [8]. […] Subsequently, the cells were washed with PBS twice and fixed with 4% paraformaldehyde at room temperature for 15 min. Cells were permeabilized by incubation with PBS containing Triton X-100 (0.1%) for 30 min. […] The distribution of tubulin was analyzed using a confocal microscope (Zeiss, LSM 410). Green fluorescence represented β-tubulin, while blue fluorescence (derived from DAPI) corresponds to nuclei.

CC(=O)O[C@H]1C(=O)[C@@]2(C)[C@H]([C@H](OC(=O)c3ccccc3)[C@]3(O)C[C@H](OC(=O)[C@H](O)[C@@H](NC(=O)c4ccccc4)c4ccccc4)C(C)=C1C3(C)C)[C@]1(OC(C)=O)CO[C@@H]1C[C@@H]2O [Paclitaxel, paclitaxel]
polymerized tubulin fraction: increased the polymeric tubulin
